{"source": "patent US8962313B2", "about": "“Method for the simultaneous induction of CTL and γδT cell” (Medinet Co., Ltd., priority 2008, dated 2015)", "assay_type_in_all_cases": "cell-based, human", "key": {"[1]": {"test_system": "disease antigen specific CD8-positive T cells in peripheral blood mononuclear cells", "assay": "Induction of disease antigen specific CD8-positive T cells (CTLs) in cultured peripheral blood mononuclear cells, FACS with Mart-1 tetramer", "conditions": "5 μM zoledronic acid, 1,000 U/mL IL-2, Disease Antigen (+) = plus 2 μg/ml Mart-1 (A27L)", "description": "(§1) 1) Peripheral blood (42 ml) was collected from a healthy donor and peripheral blood mononuclear cells were separated therefrom using a density gradient solution for blood cell separation.\n(§2) 2) The resultant peripheral blood mononuclear cells were suspended in AIM-V.\n(§3) 3) These peripheral blood mononuclear cells (8×10^6/4 mL) were seeded in a 6-well plate (SUMILON). Thereto was added 1,000 U/mL IL-2, to which 5 μM zoledronic acid (ZOMETA (trade name)) and 2 μg/ml Mart-1 (A27L, sequence: […]) as a peptide were further added, followed by starting culture under conditions of 37° C. and 5% CO2 concentration.\n(§4) 4) In addition, AB serum was added in an amount of 10% after starting the culture.\n(§5) 5) AIM-V containing 1,000 U/ml IL-2 and AB serum were added depending on the proliferation of cells, which were then cultured for 14 days.\n(§6) 6) In the cell population obtained after culture for 7 days or 14 days as described above, the percentage of disease antigen specific CD8-positive T cells and the percentage of cells expressing TCRVγ9 were measured using an anti-CD8 antibody (BD Pharmingen), T-Select HLA-A*0201 Mart-1 Tetramer […] (MBL), an anti-TCRVγ9 antibody (Beckman Coulter) and an anti-CD3 antibody (Beckman Coulter) with a fluorescence-activated cell sorter (hereinafter referred to as FACS; Epics XL-MCL ADC, Beckman Coulter)."}, "CD56 on γδT cells": {"test_system": "CD56 on γδT cells", "assay": "Surface antigen (CD3, Vγ9-TCR, CD56) expression ratio of γδT cells in cultured peripheral blood mononuclear cells, FACS", "conditions": "Day 13 of culture; 5 μM zoledronic acid, 1,000 U/mL IL-2; Disease Antigen (+) = plus 2 μg/ml Mart-1 (A27L)", "description": "Whether the addition of a disease antigen affects the expression ratio of CD56 on γδT Cells or not was examined by the following procedures. CD56 is an isoform of a neural cell adhesion molecule (N-CAM) and an adhesion factor known as a marker for NK cells. It is one of the markers providing indicators of the cytotoxic activity of γδT cells.\n1) Peripheral blood (8 ml) was collected from a healthy donor and peripheral blood mononuclear cells were separated therefrom using a density gradient solution for blood cell separation.\nas §2\n3) These peripheral blood mononuclear cells (1.8×10^6/[…]) were seeded in a 12-well plate (SUMILON). Thereto was added 1,000 U/mL IL-2, to which 5 μM zoledronic acid (ZOMETA) and 2 μg/ml Mart-1 (A27L) as a peptide were further added, followed by starting culture under conditions of 37° C. and 5% CO2 concentration.\nas §4\n5) AIM-V containing 1,000 U/ml IL-2 and AB serum were added depending on the proliferation of cells, which were then cultured for up to 14 days.\n6) In the cell population obtained after culture for up to 14 days as described above, the percentage of cells expressing TCRVγ9 or the percentage of cells expressing CD-56 were measured using an anti-TCRVγ9 antibody (Beckman Coulter), an anti-CD56 antibody (Beckman Coulter) and an anti-CD3 antibody (Beckman Coulter) with FACS (Epics XL-MCL ADC, Beckman Coulter)."}, "[2]": {"test_system": "γδT cells in peripheral blood mononuclear cells", "assay": "Induction of γδT cells (TCRVγ9-expressing cells) in cultured peripheral blood mononuclear cells, FACS", "conditions": "5 μM zoledronic acid, 1,000 U/mL IL-2, Disease Antigen (+) = plus 2 μg/ml Mart-1 (A27L)", "description": "as §1, §2, §3, §4, §5, §6"}}, "data": [{"compound": "O=P(O)(O)C(O)(Cn1ccnc1)P(=O)(O)O", "note": "[zoledronic acid]", "values": [{"measurement": "Expansion Fold (times) of Disease Antigen Specific CD8-Positive T Cells Contained in Mononuclear Cells", "setting": "[1]; Donor A, 7 days of culture", "result": 0.00, "unit": "times"}, {"measurement": "Percentage (%) of Disease Antigen Specific CD8-Positive T Cells Contained in Mononuclear Cells", "setting": "[1]; Donor A, 7 days of culture", "result": 0.00, "unit": "%"}, {"measurement": "Expansion Fold (times) of Disease Antigen Specific CD8-Positive T Cells Contained in Mononuclear Cells", "setting": "[1]; Donor A, 14 days of culture", "result": 0.00, "unit": "times"}, {"measurement": "Percentage (%) of Disease Antigen Specific CD8-Positive T Cells Contained in Mononuclear Cells", "setting": "[1]; Donor A, 14 days of culture", "result": 0.00, "unit": "%"}, {"measurement": "Expansion Fold (times) of Disease Antigen Specific CD8-Positive T Cells Contained in Mononuclear Cells", "setting": "[1]; Donor B, 7 days of culture", "result": 1.79, "unit": "times"}, {"measurement": "Percentage (%) of Disease Antigen Specific CD8-Positive T Cells Contained in Mononuclear Cells", "setting": "[1]; Donor B, 7 days of culture", "result": 0.01, "unit": "%"}, {"measurement": "Expansion Fold (times) of Disease Antigen Specific CD8-Positive T Cells Contained in Mononuclear Cells", "setting": "[1]; Donor B, 14 days of culture", "result": 0.00, "unit": "times"}, {"measurement": "Percentage (%) of Disease Antigen Specific CD8-Positive T Cells Contained in Mononuclear Cells", "setting": "[1]; Donor B, 14 days of culture", "result": 0.00, "unit": "%"}, {"measurement": "Expansion Fold (times) of Disease Antigen Specific CD8-Positive T Cells Contained in Mononuclear Cells", "setting": "[1]; Donor C, 7 days of culture", "result": 0.57, "unit": "times"}, {"measurement": "Percentage (%) of Disease Antigen Specific CD8-Positive T Cells Contained in Mononuclear Cells", "setting": "[1]; Donor C, 7 days of culture", "result": 0.02, "unit": "%"}, {"measurement": "Expansion Fold (times) of Disease Antigen Specific CD8-Positive T Cells Contained in Mononuclear Cells", "setting": "[1]; Donor C, 14 days of culture", "result": 0.00, "unit": "times"}, {"measurement": "Percentage (%) of Disease Antigen Specific CD8-Positive T Cells Contained in Mononuclear Cells", "setting": "[1]; Donor C, 14 days of culture", "result": 0.00, "unit": "%"}, {"measurement": "Surface Antigen Expression Ratio (%): CD3, Gate Area Live Cells", "setting": "CD56 on γδT cells", "result": 98.5, "unit": "%"}, {"measurement": "Surface Antigen Expression Ratio (%): CD56, Gate Area CD3", "setting": "CD56 on γδT cells", "result": 53.1, "unit": "%"}, {"measurement": "Surface Antigen Expression Ratio (%): CD56, Gate Area Live Cells", "setting": "CD56 on γδT cells", "result": 54.4, "unit": "%"}, {"measurement": "Surface Antigen Expression Ratio (%): CD56, Gate Area Vγ9", "setting": "CD56 on γδT cells", "result": 53.1, "unit": "%"}, {"measurement": "Surface Antigen Expression Ratio (%): Vγ9-TCR, Gate Area Live Cells", "setting": "CD56 on γδT cells", "result": 97.0, "unit": "%"}, {"measurement": "Expansion Fold (times) of γδT Cells Contained in Mononuclear Cells", "setting": "[2]; Donor A, 7 days of culture", "result": 50.40, "unit": "times"}, {"measurement": "Percentage (%) of γδT Cells Contained in Mononuclear Cells", "setting": "[2]; Donor A, 7 days of culture", "result": 43.7, "unit": "%"}, {"measurement": "Expansion Fold (times) of γδT Cells Contained in Mononuclear Cells", "setting": "[2]; Donor A, 14 days of culture", "result": 4027.31, "unit": "times"}, {"measurement": "Percentage (%) of γδT Cells Contained in Mononuclear Cells", "setting": "[2]; Donor A, 14 days of culture", "result": 80.9, "unit": "%"}, {"measurement": "Expansion Fold (times) of γδT Cells Contained in Mononuclear Cells", "setting": "[2]; Donor B, 7 days of culture", "result": 31.31, "unit": "times"}, {"measurement": "Percentage (%) of γδT Cells Contained in Mononuclear Cells", "setting": "[2]; Donor B, 7 days of culture", "result": 68.2, "unit": "%"}, {"measurement": "Expansion Fold (times) of γδT Cells Contained in Mononuclear Cells", "setting": "[2]; Donor B, 14 days of culture", "result": 1328.85, "unit": "times"}, {"measurement": "Percentage (%) of γδT Cells Contained in Mononuclear Cells", "setting": "[2]; Donor B, 14 days of culture", "result": 99.0, "unit": "%"}, {"measurement": "Expansion Fold (times) of γδT Cells Contained in Mononuclear Cells", "setting": "[2]; Donor C, 7 days of culture", "result": 4.97, "unit": "times"}, {"measurement": "Percentage (%) of γδT Cells Contained in Mononuclear Cells", "setting": "[2]; Donor C, 7 days of culture", "result": 28.6, "unit": "%"}, {"measurement": "Expansion Fold (times) of γδT Cells Contained in Mononuclear Cells", "setting": "[2]; Donor C, 14 days of culture", "result": 1244.02, "unit": "times"}, {"measurement": "Percentage (%) of γδT Cells Contained in Mononuclear Cells", "setting": "[2]; Donor C, 14 days of culture", "result": 89.2, "unit": "%"}]}]}
